Our source for the IC50 and solubility values is patent US20220380314A1, “SUBSTITUTED, SATURATED AND UNSATURATED N-HETEROCYCLIC CARBOXAMIDES AND RELATED COMPOUNDS FOR THEIR USE IN THE TREATMENT OF MEDICAL DISORDERS” (Bial - R&D Investments, S.A., priority 2019, published 2022).

One data set concerns the target T1, acid ceramidase (hACR) (Homo sapiens, UniProt Q13510).
T1 construct: expressed in transfected cells; cell lysate used
T1 sequence (Q13510 143-395 limits assumed): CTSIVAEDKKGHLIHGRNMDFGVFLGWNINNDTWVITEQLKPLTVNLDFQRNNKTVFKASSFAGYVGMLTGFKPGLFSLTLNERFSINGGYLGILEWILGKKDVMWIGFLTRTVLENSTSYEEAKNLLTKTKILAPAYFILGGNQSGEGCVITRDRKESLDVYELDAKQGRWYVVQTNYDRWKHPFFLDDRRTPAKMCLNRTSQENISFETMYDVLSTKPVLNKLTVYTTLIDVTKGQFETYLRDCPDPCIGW
T1 sequence (Q13510 22-142 limits assumed): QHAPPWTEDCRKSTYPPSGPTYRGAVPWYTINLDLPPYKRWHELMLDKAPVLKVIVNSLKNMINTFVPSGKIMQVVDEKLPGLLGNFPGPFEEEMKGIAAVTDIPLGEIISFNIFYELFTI
As to the kind of experiment: Acid ceramidase inhibition, biochemical fluorescent assay with cell lysates overexpressing acid ceramidase, substrate Rbm14-12. Conditions: cell lysates overexpressing acid ceramidase; 1 hr preincubation at RT; pH 4.5; substrate Rbm14-12 6.3 μM; read-out: hACR IC50. In outline:
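Enzyme source was lysate (10 µg protein) from cells overexpressing acid ceramidase, preincubated 1 hr at RT with compound dose series in 25 mM NaAc, 100 mM NaCl, pH 4.5. Rbm14-12 (6.3 μM final) reacted 1 hr at RT; stop buffer (methanol, NaIO4, glycine, pH 10.6) 1 hr, fluorescence ex360/em446; IC50 from four-parameter fit.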

Data set [1] in a line: Compound solubility in water. It counts as physicochemical.

pIC50: −log10 of the molar value. ≈ marks a conversion by molar mass, not a printed value.

As a reminder, the pIC50 is −log10 of the IC50, conventionally taken in molar units. By solubility is commonly meant the concentration that dissolves in the medium under given conditions. Read a high solubility as much dissolved substance.

`O=C(NCCc1ccccc1)N1CCCCC12CCC2` [Example 46, N-Phenethyl-5-azaspiro 3.5 nonane-5-carboxamide]: the pIC50 at acid ceramidase (hACR) is less than 6.00. Moreover, the solubility in data set [1] amounted to 17.5 µM (≈ 4.77 µg/mL).
For the compound `CN1CCC(c2cccc3c2CCC(C)(C)N3C(=O)NCCc2ccccc2)CC1` [Example 2, 2,2-Dimethyl-5-(1-methylpiperidin-4-yl)-N-phenethyl-3,4-dihydroquinoline-1(2H)-carboxamide], at acid ceramidase (hACR), the pIC50 was greater than 6.70. Further, in data set [1], the solubility came to 36.5 µM (≈ 14.8 µg/mL).
The corresponding values for `CC1(C)CC(F)=CCN1C(=O)NCCCc1ccccc1` [Example 62, 4-fluoro-2,2-dimethyl-N-(3-phenylpropyl)-3,6-dihydropyridine-1(2H)-carboxamide] are less than 6.00 and 15 µM (≈ 4.36 µg/mL).
For `CC1(C)c2ncccc2CCN1C(=O)NCCc1ccccc1` [Example 14, 8,8-Dimethyl-N-phenethyl-5,6-dihydro-1,7-naphthyridine-7(8H)-carboxamide], in that order: less than 6.00 and 24 µM (≈ 7.43 µg/mL).
For the compound `CN(c1ccccc1)C1CCN(C(=O)NCCCCc2ccccc2)C(C)(C)C1.Cl` (stereo not drawn) [Example 88, 2,2-Dimethyl-4-(N-methylanilino)-N-(4-phenylbutyl)piperidine-1-carboxamide hydrochloride], the pIC50 at acid ceramidase (hACR) was less than 6.00. In data set [1], the solubility turned out to be 0.01 µM.
For `CCCCCNC(=O)N1C(C)COCC1(C)C` (stereo not drawn) [Example 132, 3,3,5-Trimethyl-N-pentylmorpholine-4-carboxamide], the pIC50 at acid ceramidase (hACR) was greater than 6.70. The solubility in data set [1] is 88.3 µM (≈ 21.4 µg/mL).
For `O=C(NCCCc1ccccc1)N1CCCCC12CCCC2` [Example 56, N-(3-Phenylpropyl)-6-azaspiro[4.5]decane-6-carboxamide], in that order: greater than 6.70 and 4.9 µM (≈ 1.47 µg/mL).
For `CC1(C)CC(c2ccccc2)CCN1C(=O)NCCOCc1ccccc1` (stereo not drawn) [Example 75, N-(2-Benzyloxyethyl)-2,2-dimethyl-4-phenylpiperidine-1-carboxamide], in that order: less than 6.00 and 7.1 µM (≈ 2.6 µg/mL).
For `CN1CC(c2cccc3c2CCC(C)(C)N3C(=O)NCCc2ccccc2)C1` [Example 49], in that order: 6.00 to 6.70 and 35.3 µM (≈ 13.3 µg/mL).
For `CN1CC(c2ccc3c(c2)N(C(=O)NCc2ccccc2)C(C)(C)CC3)C1` [Example 65, N-benzyl-2,2-dimethyl-7-(1-methylazetidin-3-yl)-3,4-dihydroquinoline-1(2H)-carboxamide], at acid ceramidase (hACR), the pIC50 was 6.00 to 6.70. The compound also had a solubility in data set [1] of 40.2 µM (≈ 14.6 µg/mL).
For `CC1(C)CCCN1C(=O)NCCc1ccccc1` [Example 54, 2,2-Dimethyl-N-phenethylpyrrolidine-1-carboxamide], in that order: less than 6.00 and 25.6 µM (≈ 6.31 µg/mL).
For `CC1(C)CC2(CCCCO2)CCN1C(=O)NCCc1ccccc1` (stereo not drawn) [Example 17, 8,8-Dimethyl-N-phenethyl-1-oxa-9-azaspiro[5.5]undecane-9-carboxamide], in that order: 6.00 to 6.70 and 28.5 µM (≈ 9.42 µg/mL).
For `Cn1ccnc1-c1cccc2c1CCC(C)(C)N2C(=O)NCCc1ccccc1` [Example 13, 2,2-Dimethyl-5-(1-methyl-1H-imidazol-2-yl)-N-phenethyl-3,4-dihydroquinoline-1(2H)-carboxamide], in that order: less than 6.00 and 33.6 µM (≈ 13.1 µg/mL).
As for `CN1CCC(c2ccc3c(c2)N(C(=O)NCCc2ccccc2)C(C)(C)CC3)CC1` [Example 1, 2,2-Dimethyl-7-(1-methylpiperidin-4-yl)-N-phenethyl-3,4-dihydroquinoline-1(2H)-carboxamide], the pIC50 at acid ceramidase (hACR) is 6.00 to 6.70. The compound further returned a solubility in data set [1] of 33.2 µM (≈ 13.5 µg/mL).
Turning to `CC1(C)CCc2ccc(C3COC3)cc2N1C(=O)NCCc1ccccc1` [Example 52], the pIC50 at acid ceramidase (hACR) was 6.00 to 6.70. In data set [1], this compound came in with a solubility of 5 µM (≈ 1.82 µg/mL).
For `CC1(C)CC(c2ccccc2)CCN1C(=O)NCCc1ccccc1` (stereo not drawn) [Example 55, 2,2-Dimethyl-N-phenethyl-4-phenylpipridine-1-carboxamide], in that order: greater than 6.70 and 0.4 µM (≈ 0.135 µg/mL).
For `CN1CC(c2ccccc2)N(C(=O)NCCCCc2ccccc2)C(C)(C)C1` (stereo not drawn) [Example 165, 2,2,4-Trimethyl-6-phenyl-N-(4-phenylbutyl)piperazine-1-carboxamide], in that order: greater than 6.70 and 71.6 µM (≈ 27.2 µg/mL).
With `CCCCNC(=O)N1c2ccccc2CCC1(C)C` [Example 27, N-Butyl-2,2-dimethyl-3,4-dihydroquinoline-1(2H)-carboxamide], the pIC50 at acid ceramidase (hACR) is 6.00 to 6.70. In data set [1], this compound registered a solubility of 16.8 µM (≈ 4.37 µg/mL).
The corresponding values for `CN1CCN(C2CCN(C(=O)NCCc3ccccc3)C(C)(C)C2)CC1` (stereo not drawn) [Example 26, 2,2-Dimethyl-4-(4-methylpiperazin-1-yl)-N-phenethylpiperidine-1-carboxamide] are less than 6.00 and 43.7 µM (≈ 15.7 µg/mL).
The corresponding values for `CCCCNC(=O)N1CCC(OC2CCN(C)CC2)CC1(C)C` (stereo not drawn) [Example 39, N-Butyl-2,2-dimethyl-4-((1-methylpiperidin-4-yl)oxy)piperidine-1-carboxamide] are less than 6.00 and 34.8 µM (≈ 11.3 µg/mL).
For `CN(C(=O)NCCCc1ccccc1)C12CCC(CC1)CC2` [Example 63, 1-(Bicyclo[2.2.2]octan-1-yl)-1-methyl-3-(3-phenylpropyl)urea], in that order: greater than 6.70 and 3.1 µM (≈ 0.931 µg/mL).
In the case of `CC1(C)CC(N2CCCCC2)CCN1C(=O)NCCCCc1ccccc1` (stereo not drawn) [Example 83, 2,2-Dimethyl-N-(4-phenylbutyl)-4-(1-piperidyl)piperidine-1-carboxamide], the pIC50 at acid ceramidase (hACR) was greater than 6.70. In data set [1], this compound gave a solubility greater than 100 µM.
The corresponding values for `CC1(C)c2ccccc2CCN1C(=O)NCCc1ccccc1` [Example 15, 1,1-Dimethyl-N-phenethyl-3,4-dihydroisoquinoline-2(1H)-carboxamide] are less than 6.00 and 0.9 µM (≈ 0.278 µg/mL).
For `CCOCCNC(=O)N1CCC(c2ccccc2)CC1(C)C` (stereo not drawn) [Example 77, N-(2-Ethoxyethyl)-2,2-dimethyl-4-phenylpiperidine-1-carboxamide], in that order: less than 6.00 and 64.3 µM (≈ 19.6 µg/mL).
The corresponding values for `CN1CCN(C(=O)NCCc2ccccc2)C(C)(C)C1` [Example 34, 2,2,4-Trimethyl-N-phenethylpiperazine-1-carboxamide] are less than 6.00 and 23.6 µM (≈ 6.5 µg/mL).
Consider `CC1(C)CCc2cccnc2N1C(=O)NCCc1ccccc1` [Example 8, 2,2-Dimethyl-N-phenethyl-3,4-dihydro-1,8-naphthyridine-1(2H)-carboxamide], for which the pIC50 on acid ceramidase (hACR) is less than 6.00. This compound yielded a solubility in data set [1] of 27.4 µM (≈ 8.48 µg/mL).
The corresponding values for `CCCCNC(=O)N1c2cccc(N3CCN(C)CC3)c2CCC1(C)C` [Example 33, N-Butyl-2,2-dimethyl-5-(4-methylpiperazin-1-yl)-3,4-dihydroquinoline-1(2H)-carboxamide] are 6.00 to 6.70 and 22.7 µM (≈ 8.14 µg/mL).
As to `CC(C)CCNC(=O)N1CCC(Oc2ccccc2)CC1(C)C` (stereo not drawn) [Example 41, N-iso-Pentyl-2,2-dimethyl-4-phenoxypiperidine-1-carboxamide], the pIC50 at acid ceramidase (hACR) was 6.00 to 6.70. Besides, the solubility in data set [1] turned out to be 3.7 µM (≈ 1.18 µg/mL).
For `CN(C(=O)NCCCC1(C(F)(F)F)CC1)C12CCC(CC1)CC2` [Example 71, 1-(Bicyclo[2.2.2]octan-1-yl)-1-methyl-3-(3-(1-(trifluoromethyl)cyclopropyl)propyl)urea], in that order: 6.00 to 6.70 and 5.9 µM (≈ 1.96 µg/mL).
For `CCCCCNC(=O)N1[C@H](C)CN(C2CC2)C[C@@H]1C` [Example 115, (2S,6R)-4-cyclopropyl-2,6-dimethyl-N-pentylpiperazine-1-carboxamide], in that order: greater than 6.70 and 69.1 µM (≈ 18.5 µg/mL).
For `CN1CCC(c2cccc3c2CN(C(=O)NCCc2ccccc2)C(C)(C)C3)CC1` [Example 20, 3,3-Dimethyl-8-(1-methylpiperidin-4-yl)-N-phenethyl-3,4-dihydroisoquinoline-2(1H)-carboxamide], in that order: 6.00 to 6.70 and 32.2 µM (≈ 13.1 µg/mL).
Take `C=CCCCCNC(=O)N1CCC2(CCCCO2)CC1(C)C` (stereo not drawn) [Example 44, N-(Hex-5-en-1-yl)-8,8-dimethyl-1-oxa-9-azaspiro[5.5]undecane-9-carboxamide]: the pIC50 on acid ceramidase (hACR) is 6.00 to 6.70. The compound also yielded a solubility in data set [1] of 20.8 µM (≈ 6.42 µg/mL).
Regarding `CCCCNC(=O)N1CCC2(CCCCO2)CC1(C)C` (stereo not drawn) [Example 31, N-Butyl-8,8-dimethyl-1-oxa-9-azaspiro[5.5]undecane-9-carboxamide], the pIC50 on acid ceramidase (hACR) is less than 6.00. Also, the concentration in solution in data set [1] (solubility) was 32 µM (≈ 9.04 µg/mL).
The corresponding values for `CCCCNC(=O)N1CCN(C)CC1(C)C` [Example 37, N-Butyl-2,2,4-trimethylpiperazine-1-carboxamide] are less than 6.00 and 19.1 µM (≈ 4.34 µg/mL).
The corresponding values for `COc1ccc(C2COCC(C)(C)N2C(=O)NCCC(F)(F)F)cc1` (stereo not drawn) [Example 153, 5-(4-Methoxyphenyl)-3,3-dimethyl-N-(3,3,3-trifluoropropyl)morpholine-4-carboxamide] are 6.00 to 6.70 and 79.2 µM (≈ 28.5 µg/mL).
The corresponding values for `CC1(C)CC(=O)c2ccccc2N1C(=O)NCCc1ccccc1` [Example 28, 2,2-Dimethyl-4-oxo-N-phenethyl-3,4-dihydroquinoline-1(2H)-carboxamide] are less than 6.00 and 3.1 µM (≈ 0.999 µg/mL).
